Data from patent US20250281517A1, “SENOLYSIS BY AMMONIA-LOWERING COMPONENT” (TAZ Inc., priority 2022, published 2025).

Legend:
p21 = test: mRNA expression level of p21, a marker of senescent cells, in tissues of aged mice (real-time RT-PCR, GAPDH as internal standard); assay type: in vivo; conditions: aged male C57BL/6J mice (78 weeks old), test substance in drinking water ad libitum for one month, compared to aged mice having no additional administration
Procedure: (§1) As animals, experiments was performed using 7 young mice (male C57BL/6J mice, 7 weeks old) and 28 aged mice (male C57BL/6J-Aged mice, 78 weeks old).
(§2) Group 1 was constituted of young mice, and aged mice were divided into 4 groups each consisting of 7 mice (Groups 2 to 5) and the experimental conditions of individual groups are set as shown in the Table below.
(§3) As explained below, water comprising a test substance was given to the mice of Group 3 to Group 5.
The each types of drinking water which were prepared by adding a test substance as mentioned above was given to mice of each of the groups ad libitum, and the test substance was orally administered for one month. One month after the initiation of the experiment, all mice were sacrificed and dissected. […]
(§4) The RNA was purified with 75% ethanol, evaporated to dry under reduced pressure, and dissolved in 50 micro l of RNA-free water. Using NanoDrop ND-1000 (NanoDrop Technologies), absorbance was measured at 260 nm and 280 nm to determination of an absorbance ratio (A260/280 nm), RNA purity was confirmed by checking whether or not the absorbance ratio falls within the range of 1.9 to 2.1.
Quantitative real-time PCR was performed using total RNA extracted from the tissue for analysis of mRNA expressions of senescence markers p16 and p21 commonly known in the technical field. […]

p16 = test: mRNA expression level of p16, a marker of senescent cells, in tissues of aged mice (real-time RT-PCR, GAPDH as internal standard); assay type: in vivo; conditions: aged male C57BL/6J mice (78 weeks old), test substance in drinking water ad libitum for one month, compared to aged mice having no additional administration; for mRNA expression level of marker p16 for senescent cells in the hippocampus: FIG. 3
Procedure: as §1, §2, §3
The each types of drinking water which were prepared by adding a test substance as mentioned above was given to mice of each of the groups ad libitum, and the test substance was orally administered for one month. One month after the initiation of the experiment, all mice were sacrificed and dissected. From each of the mice, the liver, kidney, hippocampus and skeletal muscle were collected for measurement markers for senescent cells.
The tissues were collected from mice at the time of dissection and soaked in RNAlater (Ambion) overnight and thereafter stored at −80° C. Total RNA was extracted from the liver tissue by the TRIzol-chroloform method.
The tissue extracted from RNAlater (50 to 100 mg) was put in 1 ml of TRIzol Reagent (Invitrogen Life Technologies), crushed. After standing still at room temperature for 5 minutes, 0.2 ml of chloroform was added and stirred. After standing still at room temperature for 2 to 3 minutes, the mixture was centrifuged at 4° C. and 12,000×g for 15 minutes. The upper layer (250 micro l) was recovered and 0.5 ml of isopropanol was added. […]
as §4
Quantitative real-time PCR was performed using total RNA extracted from the tissue for analysis of mRNA expressions of senescence markers p16 and p21 commonly known in the technical field.
From the total RNA, CDNA was synthesized using PrimeScript (Registered trademark) RT reagent Kit (Perfect Real Time) in accordance with the protocol of the manufacturer. Then, CDNA was amplified by Thermal Cycler Dice Real Time System TP800 (Takara Bio) and fluorescence was detected by SYBR (Registered trademark) Premix Ex Taq™ (Perfect Real Time) and real-time PCR detection system (Takara Bio). […]
Using the mRNA expression of glyceraldehyde-3-phosphate dehydrogenase (GAPDH) as an internal standard for correction, the relative values of mRNAs of interest were calculated. […]

OC[C@H]1O[C@@H](O[C@@H]2[C@@H](CO)OC(O)(CO)[C@H]2O)[C@H](O)[C@@H](O)[C@H]1O (mixture of isomers) [lactulose]
mRNA expression level of marker p21 for senescent cells in the kidney (p21; kidney, FIG. 1): significantly decreased
mRNA expression level of marker p21 for senescent cells in the liver (p21; liver, FIG. 2, upper panel): tended to decrease
mRNA expression level of marker p16 for senescent cells in the hippocampus (p16): decreased, although not significantly
mRNA expression level of marker p16 for senescent cells in the liver (p16; liver, FIG. 2, lower panel): significantly decreased
mRNA expression level of marker p16 for senescent cells in the skeletal muscle (p16; skeletal muscle, FIG. 4): decreased, although not significantly

Cl.NCCC[C@H](N)C(=O)O [ornithine, L-ornithine hydrochloride]
mRNA expression level of marker p16 for senescent cells in the hippocampus (p16): decreased, although not significantly
